Assay results reported in patent US12600729B2, “New-type benzazepine fused ring derivative” (SHANGHAI JEYOU PHARMACEUTICAL CO., LTD., priority 2021, dated 2026).
Read-outs that look alike come from different tables or passages of the source. Values belong to the compound of their own block, whether it stands above or below them.

Assays:
[1] = target: T1, human vasopressin receptor V2R (Homo sapiens, UniProt P30518); assay: Inhibition of vasopressin-induced activation of V2R (cAMP HTRF in HeLa-V2R cells); assay type: cell-based; conditions: AVP 2.25 nM, read-out: IC50, inhibition of cAMP increase in human cervical cancer cells (Human V2R Hela-Stable cell line OE2)
T1 construct: host or cells: HeLa (lentivirus infection, puromycin selection)
T1 sequence (P30518 whole entry): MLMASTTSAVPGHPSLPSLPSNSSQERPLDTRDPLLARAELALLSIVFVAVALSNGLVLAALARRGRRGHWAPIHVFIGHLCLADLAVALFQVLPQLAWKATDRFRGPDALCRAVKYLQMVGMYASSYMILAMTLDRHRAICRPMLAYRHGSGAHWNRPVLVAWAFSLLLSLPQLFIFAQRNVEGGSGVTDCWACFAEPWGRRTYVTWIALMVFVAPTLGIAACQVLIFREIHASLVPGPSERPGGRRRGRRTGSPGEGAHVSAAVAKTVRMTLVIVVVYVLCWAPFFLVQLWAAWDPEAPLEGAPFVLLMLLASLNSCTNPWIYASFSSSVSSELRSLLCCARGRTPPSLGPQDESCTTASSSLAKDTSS
Protocol: HeLa-V2R cells were incubated with DMEM medium supplemented with 10% fetal bovine serum under the condition of 37° C. and 5% CO2, and the medium was added with 2 μg/mL puromycin to continuously screen cells expressing V2R. On the day of the experiment, the cells were digested with trypsin, washed twice with the stimulation buffer in the cAMP-GS HIRANGE kit, resuspended, and counted to prepare 1.6×10^6 cells/mL, and IBMX was added until a final concentration of 0.5 mM. 5 μL of cell suspension/well was transferred to a 384-well plate. To the corresponding wells were added 2.5 μL of various concentrations of the test compounds (3-fold dilution from 10 μM, 10 concentration gradients) or DMSO (minimum value Min, maximum value Max as a control), respectively. […]. At the same time, cAMP standard samples (3-fold dilution from 5.6 μM, 10 concentration points) were prepared, and 10 μL of cAMP standard samples were transferred to corresponding wells of a 384-well plate. The cAMP-d2 fluorescence and anti-cAMP antibody probes provided in the kit were 20-fold diluted by the lysis buffer in the cAMP-GS HIRANGE kit. To each well of a 384-well plate was sequentially added 5 μL of each diluted reagent. The above mixture in each well was mixed well, centrifuged briefly, incubated at 25° C. for 2 hours, and tested. The sample was tested by the HTRF method with the Envision microplate reader to determine the fluorescence intensity at 615 nm and 665 nm. Each test sample was tested in duplicate, with 32 replicates for both Min and Max, respectively.
The fluorescence intensity ratio FI665/615 at the wavelength of 665 nm and 615 nm of the samples in each well was calculated. The logarithm of the concentration of the standard was taken as X, and FI665/615×1000 as the Y value, and the standard curve was obtained by fitting the “log(inhibitor) vs response-variable slope (four parameters)” model in Prism 8.0 software. FI665/615×1000 of the test well was taken as the Y value, and the cAMP concentration corresponding to each sample was calculated in the Prism 8.0 software according to the above standard curve.
% Inhibition (inhibition percentage) calculation formula is as follows: % inhibition=(Cmax−Ccmpd)/(Cmax−Cmin)×100
wherein Cmax is the average calculated value of cAMP concentration in all maximum wells; Cmin is the average calculated value of cAMP concentration in all minimum wells; Ccmpd is the calculated value of cAMP concentration of the test compound.
% Inhibition (inhibition percentage) was taken as the Y value, and the logarithmic value of the compound concentration was taken as the X value, and the IC50 was calculated by nonlinear regression with “log(inhibitor) vs response-variable slope (four parameters)” model in Prism 8.0 software, wherein Y=Bottom+(Top−Bottom)/(1+10^((Log IC50−X)×Hill Slope)).

human V1bR = target: T2, human V1bR (Homo sapiens, UniProt P47901); assay: Competitive isotope ligand binding, V1b receptor
T2 construct: purchased Perkinelmer, USA
T2 sequence (P47901 1-424): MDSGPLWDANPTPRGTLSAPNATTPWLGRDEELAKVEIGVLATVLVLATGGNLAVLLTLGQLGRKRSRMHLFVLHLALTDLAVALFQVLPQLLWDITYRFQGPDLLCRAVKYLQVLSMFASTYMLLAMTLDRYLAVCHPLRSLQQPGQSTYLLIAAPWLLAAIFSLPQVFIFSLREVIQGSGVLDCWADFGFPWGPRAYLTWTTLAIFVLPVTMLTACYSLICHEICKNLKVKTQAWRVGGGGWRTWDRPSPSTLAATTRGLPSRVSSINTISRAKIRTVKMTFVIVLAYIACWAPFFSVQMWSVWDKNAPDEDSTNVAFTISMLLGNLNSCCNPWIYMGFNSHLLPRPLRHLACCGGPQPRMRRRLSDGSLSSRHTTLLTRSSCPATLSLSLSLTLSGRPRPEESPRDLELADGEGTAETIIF
Protocol: (§1) The cells with high expression of human V1a receptor were amplified, collected, washed twice with PBS, resuspended with PBS containing a protease inhibitor, homogenized with a homogenizer at 15000 r/min to break the cells, and centrifuged at 4° C. and 3000 r/min for 15 minutes. The supernatant was collected, centrifuged at 20,000 r/min at 4° C. for 45 minutes. Then the supernatant was discarded to obtain a cell membrane precipitation. Buffer was added to resuspend to measure the protein concentration, aliquoted, and stored at −80° C. The cell membranes of highly expressed human V1b and V2 receptors were purchased from Perkinelmer, USA.
(§2) The stock solution of the test compound and that of the positive control were diluted to 1 mM (10-fold dilution) and 0.1 mM (100-fold dilution) with DMSO, respectively, and then sequentially subjected to a four-fold dilution with DMSO to the tenth point.
(§3) Cell membranes overexpressing human receptors were prepared with assay buffer to 5 mg/mL.
(§4) • 1. 1 μL of the compound was aspirated from the dilution plate into each well of the 96-well assay plate (the concentration of the test compound in the reaction would be diluted 100-fold). To the control well was added 1 μL of DMSO. • 2. 10 mL of membrane solution containing 5 μg/μL was prepared. • 3. To the compound assay plate was added the membrane solution from step 2 with a pipette, and each well was added with 89 μL of the membrane solution. • 4. […] The configured test plate was placed at 30° C. and incubated for 60 minutes. • 6. The membrane complexes were collected into 0.5% PEI pre-coated GF/B plate with Cell Harvester, washed 3 times with 2 mL of pre-cooled elution buffer at 4° C., and dried at 37° C. for 2 hours. • 7.
(§5) Y=Bottom+(Top−Bottom)/(1+10^((X−Log IC50))), wherein: Y is the reading value of the liquid scintillation counter, and X is the logarithmic value of the compound concentration.

human V1aR = target: T3, human V1aR (Homo sapiens, UniProt P37288); assay: Competitive isotope ligand binding, V1a receptor
T3 construct: expressed in transfected cells; membranes prepared in house
T3 sequence (P37288 whole entry): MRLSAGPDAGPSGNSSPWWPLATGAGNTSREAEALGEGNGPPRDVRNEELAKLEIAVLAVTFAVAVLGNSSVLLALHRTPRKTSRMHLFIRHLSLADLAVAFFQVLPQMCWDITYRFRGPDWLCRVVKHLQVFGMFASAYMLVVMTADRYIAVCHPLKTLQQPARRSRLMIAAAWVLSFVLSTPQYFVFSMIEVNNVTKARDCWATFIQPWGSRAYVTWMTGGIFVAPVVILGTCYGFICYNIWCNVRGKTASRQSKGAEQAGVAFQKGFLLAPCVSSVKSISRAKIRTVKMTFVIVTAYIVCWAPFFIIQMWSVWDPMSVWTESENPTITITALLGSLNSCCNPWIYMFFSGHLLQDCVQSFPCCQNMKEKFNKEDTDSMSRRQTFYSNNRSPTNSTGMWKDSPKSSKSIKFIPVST
Protocol: as §1, §2, §3, §4, §5

LLC-PK1 cells = assay: AVP-induced LLC-PK1 cell proliferation assay; assay type: cell-based, Porcine; parameters: Proliferation inhibition grading, Repeated experiment I / Proliferation inhibition grading, Repeated experiment II: key to the marks not given beside the values; conditions: for Proliferation inhibition grading, Repeated experiment I / Proliferation inhibition grading, Repeated experiment II: LLC-PK1, AVP 10 nM, verapamil 5 μM, graded against Tolvaptan; for hook effect in AVP-induced LLC-PK1 cell proliferation: high concentration, up to 3 μM
Protocol: Porcine renal epithelial cell LLC-PK1: purchased from ATCC, Cat #CL-101 The pathogenesis of polycystic kidney disease is related to the low intracellular calcium ion concentration of renal collecting duct epithelial cells and the cAMP-dependent excessive proliferation of cells. […] LLC-PK1 cells were incubated with M199 medium supplemented with 10% fetal bovine serum under the condition of 37° C. and 5% CO2. On the first day of the experiment, a 96-well plate was coated with 0.01% Poly-D-lysine, then each well of the plate was added with 100 μL of the above mixture. After standing at room temperature for 10 minutes, the mixture in each well was aspirated and air-dried at room temperature for 1 hour, and washed once with 200 μL 1×PBS for further use. LLC-PK1 cells were digested with trypsin, resuspended with serum-free M199 after centrifugation, counted, diluted into 1×10^5/mL cell suspension with serum-free M199 medium, and added with FBS until 1% final concentration. To a 96-well plate was transfered 200 μL of cell suspension/well. After the cells were incubated for 24 hours, the supernatant of the formulated solution was aspirated, and the cells were washed once with 200 μL of PBS. Then 160 μL of M199 medium containing 0.05% FBS and 20 μL of 10×Verapamil (final concentration of 5 μM) were sequentially added thereto, and the culture was continued for 24 hours. To the corresponding wells was respectively added 10 μL of various concentrations of the test compound (final concentration starting from 3 μM, 3-fold dilution, 8 concentration gradients) or DMSO (Min, and Max as a control) on the third day. […] On the fifth day, the culture medium was carefully aspirated. The cells were washed once with 200 μL of PBS. 90 μL of M199 serum-free medium was carefully added thereto, and then 10 μL of Alamarblue reagent was added thereto. The mixture was centrifuged at 300 rpm for 1 minute, incubated at 37° C. for 2 hours, and then tested. SpectraMax instrument was used for the sample test. The excitation light was 560 nm, and the emission light was 595 nm. Each test sample was tested in triplicate, with 6 replicates for both Min and Max, respectively. The concentration of the compound was taken as the X value, and the average value of the fluorescence intensity of each experimental well sample minus the fluorescence intensity of the background well was taken as the Y value, which represented the number of living cells in the well at the time of testing. The Grouped-Summary data-Separated bar graph in GraphPad Prism 8.0 software was used to make a bar chart for reflecting the dose-effect relationship of different compounds on AVP-induced cell proliferation. […] Data quality control: […]

[2] = In vivo pharmacokinetics in mice, oral administration; conditions: male CD1 mice, oral 10 mg/kg; for AUC(0-inf) / Cmax / half-life: mouse, plasma
Protocol: In this experimental example, in vivo pharmacokinetic evaluations were performed on mice by intravenous injection and oral administration.
Experimental methods and conditions: Male CD1 mice, 6 to 8 weeks old with free access to food and water, were administered by oral gavage with a dosage of 10 mg/kg (solvent 5% DMSO/10% Solutol/85% Saline). 15 minutes, 30 minutes, 1 hour, 2 hours, 4 hours, 8 hours, 10 hours, 24 hours after administration, blood samples were collected. Each sample was collected in a volume of 150 μL and anticoagulated with heparin sodium, placed on ice after collection, and centrifuged within 1 hour to separate the test plasma. The plasma concentration in plasma was tested by liquid chromatography-tandem mass spectrometry (LC/MS/MS), and pharmacokinetic parameters were calculated using Phoenix WinNonlin software via the measured concentration.

human V2R = target: T4, human V2R (Homo sapiens, UniProt P30518); assay: Competitive isotope ligand binding, V2 receptor
T4 construct: purchased Perkinelmer, USA
T4 sequence (P30518 whole entry): as the sequence (P30518 whole entry) above
Protocol: as §1, §2, §3, §4, §5

[3] = read-out: Binding affinity V1bR, N = 2, isotope-labeled vasopressin […], experiment 2, bound printed in μM

SMILES: O=C(Nc1ccc(C(=O)N2CC[C@@H]3CCN[C@H]3c3cc(Cl)ccc32)cn1)c1ccccc1C(F)(F)F (single isomer, unassigned) [Compound 10A]
- IC50 (human V1bR): > 10000 nM
- Ki (human V1bR): > 10 µM
- Ki (human V1bR; isotope-labeled vasopressin […], bound given in μM, read-out: Binding affinity V1bR, summary of the two experiments): > 10 µM
- Ki (human V1bR; [3]): > 10 µM
- Ki (human V1aR; Binding affinity V1aR, N = 1, isotope-labeled vasopressin […], experiment 1): 19.7 nM
- Ki (human V1aR; Binding affinity V1aR, N = 2, isotope-labeled vasopressin […], experiment 2): 11.1 nM
- Ki (human V1aR; isotope-labeled vasopressin […], mean ± spread, read-out: Binding affinity V1aR, mean of the two experiments): 15.4 ± 4.3 nM
- Proliferation inhibition grading, Repeated experiment I (LLC-PK1 cells): +++
- Proliferation inhibition grading, Repeated experiment II (LLC-PK1 cells): +++
- F [2]: 73.34%
- AUC(0-inf) [2]: 2030 ng·h/mL
- Cmax [2]: 833 ng/mL
- half-life [2]: 4.44 h
- binding affinity for V2R compared with V1a (V1a/V2 selectivity) (human V2R): higher than that for V1a
- Ki (human V2R; Binding affinity V2R, N = 1, isotope-labeled vasopressin 1 nM, experiment 1): 2.1 nM
- Ki (human V2R; Binding affinity V2R, N = 2, isotope-labeled vasopressin 1 nM, experiment 2): 2.76 nM
- Ki (human V2R; isotope-labeled vasopressin 1 nM, mean ± spread, read-out: Binding affinity V2R, mean of the two experiments): 2.4 ± 0.3 nM
- IC50 [1]: 31 nM

SMILES: O=C(Nc1ccc(C(=O)N2CCC3CCNC3c3cc(Cl)ccc32)cn1)c1ccccc1C(F)(F)F (stereo not drawn) [Compound 2]
- IC50 [1]: 32.6 nM

SMILES: CN1CCC2CCN(C(=O)c3ccc(NC(=O)c4ccccc4C(F)(F)F)nc3)c3ccc(Cl)cc3[C@H]21 (stereo partly drawn) [Compound 3A]
- IC50 [1]: 84.7 nM

SMILES: O=C(Nc1ccc(C(=O)N2CCC3CCNC3c3cc(Cl)ccc32)cn1)c1ccccc1C(F)(F)F (stereo not drawn) [Compound 8]
- IC50 [1]: 69.5 nM

SMILES: Cc1ccccc1C(=O)Nc1ccc(C(=O)N2CCCC(O)c3cc(Cl)ccc32)c(C)c1 (stereo not drawn) [Reference substance 1, Tolvaptan, reference compound]
- IC50 (human V1bR): > 10000 nM
- Ki (human V1bR; read-out: Binding affinity V1bR, N = 1, isotope-labeled vasopressin […], experiment 1, bound printed in μM): > 10 µM
- Ki (human V1bR; [3]): > 10 µM
- Ki (human V1bR; read-out: Binding affinity V1bR, summary of the two experiments): > 10 µM
- Proliferation inhibition grading, Repeated experiment I (LLC-PK1 cells): ++
- Proliferation inhibition grading, Repeated experiment II (LLC-PK1 cells): ++
- hook effect in AVP-induced LLC-PK1 cell proliferation (LLC-PK1 cells): high-concentration pro-proliferative hook effect
- F [2]: 44%
- AUC(0-inf) [2]: 1610 ng·h/mL
- Cmax [2]: 1310 ng/mL
- half-life [2]: 1.58 h

Second part, led by results:

- IC50 [1]: 7.45 nM
SMILES: Cc1ccccc1C(=O)Nc1ccc(C(=O)N2CCC3CCOC3c3cc(Cl)ccc32)c(C)c1 (single isomer, unassigned) [Compound 4]

- IC50 [1]: 61.6 nM
SMILES: Cc1ccccc1C(=O)Nc1ccc(C(=O)N2CCC3CCOC3c3cc(Cl)ccc32)c(C)c1 (single isomer, unassigned) [Compound 5]

- IC50 [1]: 14.7 nM
SMILES: Cc1ccccc1C(=O)Nc1ccc(C(=O)N2CCC3CCNC3c3cc(Cl)ccc32)c(C)c1 (stereo not drawn) [Compound 1]
- dose-response compared with Tolvaptan (LLC-PK1 cells; AVP-induced LLC-PK1 cell proliferation): superior to that of Tolvaptan
- hook effect in AVP-induced LLC-PK1 cell proliferation (LLC-PK1 cells): no hook effect

- IC50 [1]: 3.85 nM
SMILES: Cc1ccccc1C(=O)Nc1ccc(C(=O)N2CCC3COC3c3cc(Cl)ccc32)c(C)c1 (stereo not drawn) [Compound 6]

- IC50 [1]: 92.7 nM
SMILES: Cc1cc(NC(=O)c2ccccc2Cl)ccc1C(=O)N1CCC2CNC2c2cc(Cl)ccc21 (stereo not drawn) [Compound 7]
